Consider 44 compounds from patent US12351580B2, “NLRP3 modulators” (Innate Tumor Immunity, Inc., priority 2017, dated 2025).

This test has as its target T1, TLR8 (Homo sapiens, UniProt Q9NR97).
T1 construct: host or cells: HEK-Blue cells (human HEK) co-expressing TLR8 and an NF-kB/AP1-inducible SEAP reporter
T1 sequence (Q9NR97 27-1041): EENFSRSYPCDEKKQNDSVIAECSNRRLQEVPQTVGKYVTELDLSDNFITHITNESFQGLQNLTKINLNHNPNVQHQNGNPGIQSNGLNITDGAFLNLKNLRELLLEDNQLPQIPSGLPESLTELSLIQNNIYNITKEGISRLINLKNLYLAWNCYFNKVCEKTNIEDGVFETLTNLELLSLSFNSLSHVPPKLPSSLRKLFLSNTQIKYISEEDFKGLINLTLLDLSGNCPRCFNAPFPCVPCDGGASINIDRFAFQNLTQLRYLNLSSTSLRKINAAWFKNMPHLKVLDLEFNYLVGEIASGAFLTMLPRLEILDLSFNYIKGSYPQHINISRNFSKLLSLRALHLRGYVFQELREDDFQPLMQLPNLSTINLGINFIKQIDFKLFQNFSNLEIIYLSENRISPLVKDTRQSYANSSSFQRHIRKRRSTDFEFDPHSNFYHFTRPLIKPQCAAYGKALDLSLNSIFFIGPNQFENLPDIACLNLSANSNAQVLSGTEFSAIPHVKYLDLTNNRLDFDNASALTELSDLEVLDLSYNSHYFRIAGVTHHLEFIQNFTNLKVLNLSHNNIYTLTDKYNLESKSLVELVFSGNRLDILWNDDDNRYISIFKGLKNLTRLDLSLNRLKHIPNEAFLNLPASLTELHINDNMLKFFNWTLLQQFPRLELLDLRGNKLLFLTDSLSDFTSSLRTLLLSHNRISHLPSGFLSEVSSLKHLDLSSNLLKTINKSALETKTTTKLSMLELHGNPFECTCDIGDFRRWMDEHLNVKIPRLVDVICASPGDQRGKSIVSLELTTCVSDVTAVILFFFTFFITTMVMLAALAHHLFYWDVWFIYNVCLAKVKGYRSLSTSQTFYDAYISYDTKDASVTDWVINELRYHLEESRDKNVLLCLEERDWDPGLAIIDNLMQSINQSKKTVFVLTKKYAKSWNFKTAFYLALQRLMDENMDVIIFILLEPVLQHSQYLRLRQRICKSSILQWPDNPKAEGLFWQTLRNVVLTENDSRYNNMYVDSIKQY
The test can be described thus: In vitro human TLR8 binding reporter assay (HEK-Blue, NF-kB/AP1-inducible SEAP). It counts as cell-based. Conditions: activity range symbols. The method, then:
In Vitro Human TLR7 and TLR8 Binding Reporter Assays
Logarithmically-growing human HEK-Blue cells co-expressing a TLR7 or TLR8 gene and a NF-kB/AP1-inducible SEAP (secreted embryonic alkaline phosphatase; Invivogen, San Diego, CA) reporter gene are added to individual wells of a 384-well plate (15,000 cells per 20 μL per well) and maintained for 24 h at 37° C., 5% CO2. Test compounds or DMSO are distributed to separate wells the next day using acoustic liquid handling technology (100 nL per well) and cells are subsequently incubated for 18 h at 37° C., 5% CO2. Cellular SEAP production is measured using an Envision plate reader instrument thirty minutes after adding freshly-made Quanti-Blue reagent (prepared by following manufacturer instructions; Invivogen, San Diego, CA) to the HEK-Blue TLR Nf-kB-SEAP cell reactions. All EC50 values (half-maximal effective concentration) are determined using proprietary data analysis software.
For `Nc1nc2cc(-n3cccn3)ccc2c2[nH]c(CN3CC(c4ccccc4)CC3=O)nc12` (centres unmarked) [Compound 103], the 50% effective concentration (EC50) was above 100 µM.
Then `CCN(Cc1nc2c(N)nc3cc(C)ccc3c2[nH]1)C(C)=O` [Compound 104], with above 100 µM; and `CCNCc1nc2c(N)nc3cc(-c4cc[nH]n4)ccc3c2n1C` [Compound 106, 2-((Ethylamino)methyl)-1-methyl-7-(1H-pyrazol-3-yl)-1H-imidazo[4,5-c]quinolin-4-amine], with above 100 µM.
The same measure for `CCN(Cc1nc2c(N)nc3cc(-n4cccn4)ccc3c2[nH]1)S(C)(=O)=O` [Compound 108, N-((4-Amino-7-(1H-pyrazol-1-yl)-1H-imidazo[4,5-c]quinolin-2-yl)methyl)-N-ethylmethanesulfonamide]: above 100 µM.
`CCN(Cc1nc2c(N)nc3cc(-c4cc[nH]n4)ccc3c2[nH]1)C(=O)OC(C)(C)C` [Compound 109, tert-Butyl ((4-amino-7-(1H-pyrazol-3-yl)-1H-imidazo[4,5-c]quinolin-2-yl)methyl)(ethyl)carbamate] came in with a concentration giving a half-maximal response (EC50) above 100 µM.
For `CCN(Cc1nc2c(N)nc3cc(-c4cc[nH]n4)ccc3c2[nH]1)C(=O)N(C)C` [Compound 110, 1-((4-Amino-7-(1H-pyrazol-3-yl)-1H-imidazo[4,5-c]quinolin-2-yl)methyl)-1-ethyl-3,3-dimethylurea], the EC50 is above 100 µM.
The same measure for `Nc1nc2cc(C(F)(F)F)ccc2c2[nH]c(CN3CCCC3=O)nc12` [Compound 163]: above 100 µM.
Consider `CCN(Cc1nc2c(N)nc3ccccc3c2n1CCCC(=O)OC)C(C)=O` [Compound 164], for which the concentration giving a half-maximal response (EC50) is above 100 µM.
The same measure for `CCN(Cc1nc2c(N)nc3cc(-c4ccccc4)ccc3c2[nH]1)C(C)=O` [Compound 165, N-[(4-amino-7-phenyl-1H-imidazo[4,5-c]quinolin-2-yl)methyl]-N-ethylacetamide]: above 100 µM; for `CCN(Cc1nc2c(N)nc3cc(-c4cccnc4)ccc3c2[nH]1)C(C)=O` [Compound 166, N-[(4-amino-7-pyridin-3-yl-1H-imidazo[4,5-c]quinolin-2-yl)methyl]-N-ethylacetamide]: above 100 µM; for `CCN(Cc1nc2c(N)nc3cc(-c4ccncc4)ccc3c2[nH]1)C(C)=O` [Compound 167, N-[(4-amino-7-pyridin-4-yl-1H-imidazo[4,5-c]quinolin-2-yl)methyl]-N-ethylacetamide]: above 100 µM.
`CCN(Cc1nc2c(N)nc3cc(-c4cc(C)nn4C)ccc3c2[nH]1)C(C)=O` [Compound 168, N-[[4-amino-7-(2,5-dimethylpyrazol-3-yl)-1H-imidazo[4,5-c]quinolin-2-yl]methyl]-N-ethylacetamide]: the EC50 is above 100 µM.
The same measure for `CCCn1cc(-c2ccc3c(c2)nc(N)c2nc(CN(CC)C(C)=O)[nH]c23)cn1` [Compound 169, N-[[4-amino-7-(1-propylpyrazol-4-yl)-1H-imidazo[4,5-c]quinolin-2-yl]methyl]-N-ethylacetamide]: above 100 µM.
`CCN(Cc1nc2c(N)nc3cc(C(C)C)ccc3c2[nH]1)C(C)=O` [Compound 170, N-[(4-amino-7-propan-2-yl-1H-imidazo[4,5-c]quinolin-2-yl)methyl]-N-ethylacetamide]: the concentration for a half-maximal effect (EC50) is above 100 µM.
Then `CCc1ccc2c(c1)nc(N)c1nc(CN(CC)C(C)=O)[nH]c12` [Compound 171, N-[(4-amino-7-ethyl-1H-imidazo[4,5-c]quinolin-2-yl)methyl]-N-ethylacetamide], with above 100 µM; and `CCCc1ccc2c(c1)nc(N)c1nc(CN(CC)C(C)=O)[nH]c12` [Compound 172, N-[(4-amino-7-propyl-1H-imidazo[4,5-c]quinolin-2-yl)methyl]-N-ethylacetamide], with above 100 µM; and `CCN(Cc1nc2c(N)nc3cc(C4CCCC4)ccc3c2[nH]1)C(C)=O` [Compound 173, N-[(4-amino-7-cyclopentyl-1H-imidazo[4,5-c]quinolin-2-yl)methyl]-N-ethylacetamide], with above 100 µM.
Take `CCN(Cc1nc2c(N)nc3cc(-c4cccnc4F)ccc3c2[nH]1)C(C)=O` [Compound 175, N-[[4-amino-7-(2-fluoropyridin-3-yl)-1H-imidazo[4,5-c]quinolin-2-yl]methyl]-N-ethylacetamide]: the EC50 was above 100 µM.
Then `CCN(Cc1nc2c(N)nc3ccccc3c2[nH]1)C(C)=O` [Compound 176], with above 100 µM.
Then `CCN(Cc1nc2c(N)nc3cc(Br)ccc3c2[nH]1)C(C)=O` [Compound 177], with above 100 µM; and `CCN(Cc1nc2c(N)nc3cc(Cl)ccc3c2[nH]1)C(C)=O` [Compound 179, N-[(4-amino-7-chloro-1H-imidazo[4,5-c]quinolin-2-yl)methyl]-N-ethylacetamide], with above 100 µM.
`CCN(Cc1nc2c(N)nc3cc(-n4cccn4)ccc3c2[nH]1)C(C)=O` [Compound 180, N-[(4-amino-7-pyrazol-1-yl-1H-imidazo[4,5-c]quinolin-2-yl)methyl]-N-ethylacetamide] displayed an EC50 above 100 µM.
The same measure for `CCN(Cc1nc2c(N)nc3cc(C4=CCCC4)ccc3c2[nH]1)C(C)=O` [Compound 183]: above 100 µM.
For the compound `CC(=O)N(C)Cc1nc2c(N)nc3ccccc3c2[nH]1` [Compound 187], the EC50 is 20 to 100 µM.
On to `COC(=O)CCCn1c(CN(C)C(C)=O)nc2c(N)nc3ccccc3c21` [Compound 188], for which the EC50 was above 100 µM.
Then `CCN(Cc1nc2c(N)nc3cc(C4CC4)ccc3c2n1Cc1ccc(OC)cc1)C(C)=O` [Compound 190], with above 100 µM.
`CCN(Cc1nc2c(N)nc3ccccc3c2n1CCCNC(=O)OC(C)(C)C)C(C)=O` [Compound 191] came in with an EC50 above 100 µM.
Then `CCN(Cc1nc2c(N)nc3ccc(Br)cc3c2[nH]1)C(C)=O` [Compound 194], with above 100 µM.
Then `CCN(Cc1nc2c(N)nc3cc(N4CCNC4=O)ccc3c2n1Cc1ccc(OC)cc1)C(C)=O` [Compound 196], with above 100 µM.
The same measure for `CCN(Cc1nc2c(N)nc3ccc(Cl)cc3c2[nH]1)C(C)=O` [Compound 197]: above 100 µM; for `CCOC(=O)c1cc2c(cc1Br)nc(N)c1nc(CN(CC)C(C)=O)[nH]c12` [Compound 198]: above 100 µM; for `CCN(Cc1nc2c(N)nc3ccc(Br)cc3c2[nH]1)C(=O)OC` [Compound 200]: above 100 µM.
The compound `CCN(Cc1nc2c(N)nc3ccc(Br)cc3c2[nH]1)S(C)(=O)=O` [Compound 201] came in with an EC50 above 100 µM.
With `CCN(Cc1nc2c(N)nc3ccc(Br)cc3c2[nH]1)S(=O)(=O)c1ccc(C)cc1` [Compound 202], the concentration for a half-maximal effect (EC50) is above 100 µM.
The same measure for `CCN(Cc1nc2c(N)nc3ccc(Br)cc3c2[nH]1)C(=O)C(C)C` [Compound 203]: above 100 µM.
The same measure for `CCN(Cc1nc2c(N)nc3ccc(Br)cc3c2[nH]1)C(=O)c1ccccc1` [Compound 204]: above 100 µM; for `CCN(Cc1nc2c(N)nc3ccccc3c2n1CCC(=O)N1CCOCC1)C(=O)OC(C)(C)C` [Compound 205]: above 100 µM; for `CCN(Cc1nc2c(N)nc3ccc(-n4cccn4)cc3c2[nH]1)C(C)=O` [Compound 207]: above 100 µM.
The same measure for `CCN(Cc1nc2c(N)nc3cc(Br)ccc3c2n1CCCC(=O)N1CCN(C)CC1)C(C)=O` [Compound 209]: above 100 µM; for `CCN(Cc1nc2c(N)nc3cc(Br)ccc3c2n1CCCC(=O)NC)C(C)=O` [Compound 210]: above 100 µM.
Compound `CCN(Cc1nc2c(N)nc3ccccc3c2n1CCC(=O)N1CCN(C(=O)OC(C)(C)C)CC1)C(=O)OC(C)(C)C` [Compound 211] returned an EC50 above 100 µM.
The same measure for `CCN(Cc1nc2c(N)nc3ccccc3c2n1CCC(=O)N1CCN(C(=O)OC(C)(C)C)CC1)C(C)=O` [Compound 212]: above 100 µM.
`CCN(Cc1nc2c(N)nc3cc(Br)ccc3c2n1CCCC(=O)N(C)C)C(C)=O` [Compound 213] returned an EC50 above 100 µM.
Then `CCN(Cc1nc2c(N)nc3cc(Br)ccc3c2n1CCCC(=O)N1CCOCC1)C(C)=O` [Compound 214], with above 100 µM.

Broadly, the EC50 is the concentration needed to bring the measured effect to its halfway point. Read a high EC50 as lower potency in that assay.
